Series [1] deals with RCV RdRp. The series can be described thus: PicoGreen dsRNA assay, substrate inhibition model. In kind it is biochemical, Rabbit calicivirus Australia 1 (Lagovirus europaeus GI.4). The note with it: substrate inhibition constant; rGTP 0–2.0 mM, 20 ng/μL poly(C), 2.5 mM MnCl2, pH 7.5, 30 °C.
Series [2] has as its system NoV RdRp. In words: PicoGreen dsRNA assay, substrate inhibition model. It is filed as biochemical, Norovirus GII.4 (Norwalk virus, Norovirus norwalkense). Conditions: substrate inhibition constant; rGTP 0–2.0 mM, 20 ng/μL poly(C), 2.5 mM MnCl2, pH 7.5, 30 °C.
Series [3] has as its system NoV RdRp. The series can be described thus: PicoGreen dsRNA assay, Michaelis-Menten model. It is filed as biochemical, Norovirus GII.4 (Norwalk virus, Norovirus norwalkense). The note with it: 20 ng/μL poly(C), 2.5 mM MnCl2, 5 mM DTT, pH 7.5, 30 °C; Michaelis-Menten fit.
Series [4] deals with RCV RdRp. In words: PicoGreen dsRNA assay, Michaelis-Menten model. It is filed as biochemical, Rabbit calicivirus Australia 1 (Lagovirus europaeus GI.4). The note with it: 20 ng/μL poly(C), 2.5 mM MnCl2, 5 mM DTT, pH 7.5, 30 °C; Michaelis-Menten fit.
Series [5] concerns the target T1, RHDV RdRp (Rabbit hemorrhagic disease virus-V351, UniProt P27411).
T1 construct: gene ORF1
The series can be described thus: PicoGreen dsRNA assay, substrate inhibition model. It is filed as biochemical. The note with it: substrate inhibition constant; rGTP 0–2.0 mM, 20 ng/μL poly(C), 2.5 mM MnCl2, pH 7.5, 30 °C.

In series [6] the target is RCV RdRp. The series can be described thus: PicoGreen dsRNA de novo polymerase assay. In kind it is biochemical, Rabbit calicivirus Australia 1 (Lagovirus europaeus GI.4). Conditions: 45 μM rGTP, 10 ng/μL poly(C), 2.5 mM MnCl2, pH 7.5, 30 °C, 10 min preincubation; non-nucleoside inhibitor.
In series [7] the target is T1, RHDV RdRp. The series can be described thus: PicoGreen dsRNA de novo polymerase assay. It is filed as biochemical.
The subject of series [8] is Nc1nc2c(ncn2[C@@H]2O[C@H](COP(=O)(O)OP(=O)(O)OP(=O)(O)O)[C@@H](O)[C@H]2O)c(=O)[nH]1. In words: purified protein. The note with it: 20 ng/μL poly(C), 2.5 mM MnCl2, 5 mM DTT, pH 7.5, 30 °C, Michaelis-Menten fit.

What is called Km is the substrate concentration at which the rate is half of its maximum. For orientation: IC50 means the concentration at which inhibition is half-maximal. Low values mean higher potency, high ones lower potency.

T1 sequence (P27411 1252-1767): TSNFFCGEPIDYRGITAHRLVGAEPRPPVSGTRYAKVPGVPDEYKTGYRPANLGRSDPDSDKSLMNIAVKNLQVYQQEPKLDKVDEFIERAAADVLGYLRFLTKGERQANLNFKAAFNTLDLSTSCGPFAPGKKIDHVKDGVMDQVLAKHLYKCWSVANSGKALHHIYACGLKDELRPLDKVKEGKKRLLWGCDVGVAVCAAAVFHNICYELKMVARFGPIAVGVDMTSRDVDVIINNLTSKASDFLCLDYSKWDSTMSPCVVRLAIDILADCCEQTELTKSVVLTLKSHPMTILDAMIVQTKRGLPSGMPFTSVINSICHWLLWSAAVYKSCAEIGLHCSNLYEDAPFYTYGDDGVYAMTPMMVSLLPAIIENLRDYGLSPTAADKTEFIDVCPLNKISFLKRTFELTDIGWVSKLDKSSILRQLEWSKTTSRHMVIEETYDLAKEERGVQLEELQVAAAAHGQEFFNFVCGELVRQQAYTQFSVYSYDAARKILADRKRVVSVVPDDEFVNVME

Consider `Nc1nc2c(ncn2[C@@H]2O[C@H](COP(=O)(O)OP(=O)(O)OP(=O)(O)O)[C@@H](O)[C@H]2O)c(=O)[nH]1` [rGTP], for which the “RCV RdRp” value in series [1] was 1.7 ± 0.2 mM. Moreover, the “NoV RdRp” value in series [2] was 0.6 ± 0.2 mM. For the same compound, the Michaelis-Menten constant (Km) worked out at 77.7 ± 14.5 µM in series [3] and 5.7 ± 0.7 µM in series [4]. The “RHDV RdRp” value in series [5] was found to be 2.1 ± 0.4 mM.
For the compound `Cc1nc(-c2ccccc2)sc1C(=O)Nc1sc2c(c1C#N)CCC2` [NIC02], the IC50 in series [6] is 13.5 µM; in series [7] it was 19.9 µM.
“RHDV RdRp (Rabbit hemorrhagic disease virus-V351)”: the Km in series [8] stood at 14.6 ± 2.4 µM.

Source of the values: PMC4848594 (Viruses, 2016).
